# Values quoted from earlier work in US20140242195A1, “AUTOMOTIVE SURFACE CONDITIONING SYSTEM” (American Covers, Inc., priority 2013, published 2014).
# Details: component of the composition
row,Structure (SMILES),Vapor Pressure (mmHg)
1,"CCOCCOCCO [CARBITOL, diethylene glycol monoethyl ether]",0.07
2,OCC(O)CO [Glycerin],0.003
